# Results published in patent US10093656B2, “Fused-ring or tricyclic aryl pyrimidine compound used as kinase inhibitor” (NANJING SANHOME PHARMACEUTICAL CO., LTD, priority 2015, dated 2018).
# pIC50: −log10 of the molar value.
# Columns and labels:
# [1] = target: T1, EGFR wild type (Homo sapiens, UniProt P00533); test: Wild-type EGFR enzyme HTRF inhibition assay; assay type: biochemical; conditions: 25 μM ATP, read-out: EGFR WT IC50
# T1 construct: purchased Life technology (Madison, Wis.)
# How it was run: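 HTRF with 0.05 nM wild-type EGFR, 1 μM biotin-TK1 peptide, 25 μM ATP, 60 min at 23° C; detected with Eu-anti-TK1 antibody 2 nM and XL665 62.5 nM, 60 min at 23° C. Ten 3-fold doses, 300 nM to 0.015 nM final; IC50 by four-parameter fit of % inhibition.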
# [2] = target: T2, EGFR T790M/L858R (Homo sapiens, UniProt P00533, L858R/T790M); test: EGFR T790M/L858R enzyme HTRF inhibition assay; assay type: biochemical; conditions: 20 μM ATP, read-out: EGFR L858R/T79M IC50
# T2 construct: purchased Life technology (Madison, Wis.)
# T2 sequence (P00533 25-1210 T790M/L858R): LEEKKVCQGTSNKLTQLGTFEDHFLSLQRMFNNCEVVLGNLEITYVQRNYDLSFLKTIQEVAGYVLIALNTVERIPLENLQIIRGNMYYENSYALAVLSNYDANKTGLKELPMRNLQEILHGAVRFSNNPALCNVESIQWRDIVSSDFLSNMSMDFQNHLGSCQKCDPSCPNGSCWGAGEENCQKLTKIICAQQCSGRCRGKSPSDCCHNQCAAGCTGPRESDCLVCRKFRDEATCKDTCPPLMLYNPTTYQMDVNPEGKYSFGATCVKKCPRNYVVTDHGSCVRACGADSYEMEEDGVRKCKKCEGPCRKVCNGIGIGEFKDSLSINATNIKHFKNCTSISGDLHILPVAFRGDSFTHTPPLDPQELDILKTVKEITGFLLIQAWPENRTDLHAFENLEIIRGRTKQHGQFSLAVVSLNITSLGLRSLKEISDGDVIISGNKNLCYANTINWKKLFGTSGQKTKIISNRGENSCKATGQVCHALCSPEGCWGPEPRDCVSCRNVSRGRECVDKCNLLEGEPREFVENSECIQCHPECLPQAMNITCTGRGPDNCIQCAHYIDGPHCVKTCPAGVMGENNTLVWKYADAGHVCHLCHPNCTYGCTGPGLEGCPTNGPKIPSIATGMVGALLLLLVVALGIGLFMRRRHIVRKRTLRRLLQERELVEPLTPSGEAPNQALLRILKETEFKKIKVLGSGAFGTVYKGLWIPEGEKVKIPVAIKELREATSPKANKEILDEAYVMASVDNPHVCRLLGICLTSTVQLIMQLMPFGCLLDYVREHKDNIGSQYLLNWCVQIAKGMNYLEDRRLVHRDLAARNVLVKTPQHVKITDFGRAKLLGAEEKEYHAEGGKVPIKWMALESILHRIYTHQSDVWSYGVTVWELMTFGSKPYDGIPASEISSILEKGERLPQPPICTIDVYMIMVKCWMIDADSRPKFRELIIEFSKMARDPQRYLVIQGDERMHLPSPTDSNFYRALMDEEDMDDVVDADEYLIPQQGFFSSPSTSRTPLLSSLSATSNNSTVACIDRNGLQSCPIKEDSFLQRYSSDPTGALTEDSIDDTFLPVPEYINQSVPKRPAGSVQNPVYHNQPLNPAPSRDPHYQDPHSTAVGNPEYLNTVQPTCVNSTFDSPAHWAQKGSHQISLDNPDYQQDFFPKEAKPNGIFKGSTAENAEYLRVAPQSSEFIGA
# How it was run: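 HTRF assay with 0.04 nM enzyme, 1 μM biotin-TK1 peptide and 20 μM ATP, 60 min at 23° C. Product detected with Eu-anti-TK1 antibody/XL665 (60 min at 23° C); compound at 10 doses, 300 nM to 0.015 nM final. IC50 from four-parameter fit.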
# [3] = target: T3, EGFR d746-750/T790M (Homo sapiens, UniProt P00533, DEL746-750/T790M); test: EGFR d746-750/T790M enzyme HTRF inhibition assay; assay type: biochemical; conditions: 40 μM ATP
# T3 construct: purchased Carna Biosciences (Japan)
# T3 sequence (P00533 with tags, fused parts or gaps DEL746-750/T790M limits assumed): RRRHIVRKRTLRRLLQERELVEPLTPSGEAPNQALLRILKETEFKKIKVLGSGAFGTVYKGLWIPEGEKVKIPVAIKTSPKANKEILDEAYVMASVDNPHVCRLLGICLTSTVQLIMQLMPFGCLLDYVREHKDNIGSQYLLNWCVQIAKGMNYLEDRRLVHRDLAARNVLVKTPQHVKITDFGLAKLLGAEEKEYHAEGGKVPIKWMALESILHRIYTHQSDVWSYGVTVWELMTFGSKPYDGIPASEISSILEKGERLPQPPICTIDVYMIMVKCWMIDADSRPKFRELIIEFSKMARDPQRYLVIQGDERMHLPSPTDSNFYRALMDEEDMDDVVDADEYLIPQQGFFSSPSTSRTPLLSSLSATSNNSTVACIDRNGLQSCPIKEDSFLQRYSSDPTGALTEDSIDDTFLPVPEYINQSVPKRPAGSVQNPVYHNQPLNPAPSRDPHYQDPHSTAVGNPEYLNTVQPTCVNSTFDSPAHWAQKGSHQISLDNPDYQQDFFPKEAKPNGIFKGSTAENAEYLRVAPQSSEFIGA
# How it was run: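 0.025 nM enzyme with 1 μM biotin-TK1 peptide and 40 μM ATP, 60 min at 23° C; compound tested at 10 doses, 300 nM to 0.015 nM final. HTRF read (Eu-anti-TK1 antibody 2 nM, XL665 62.5 nM, 60 min at 23° C); IC50 from four-parameter fit of % inhibition.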
# [4] = test system: NCI-H1975 cells EGFR L858R/T790M; test: NCI-H1975 cell viability assay (Cell Titer-Glo, 6 days); assay type: cell-based; conditions: Homo sapiens, 144 h
# How it was run: (§1)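 A431 (EGFR WT) and NCI-H1975 (EGFR L858R/T790M) cells treated for 6 days at 37° C, in duplicate with 10 three-fold doses from 10 μM to 0.508 nM final. Viability read as CellTiter-Glo luminescence. IC50 from four-parameter fit of % inhibition.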
# [5] = test system: A431 cells EGFR WT; test: A431 cell viability assay (Cell Titer-Glo, 6 days); assay type: cell-based, human; conditions: for pIC50: Homo sapiens, A-431, 144 h, A431 cells, 6 days; for A431:NCI-H1975 (ratio): ratio of cell IC50 A431 to NCI-H1975
# How it was run: as §1
# [6] = target: T4, INSR (Homo sapiens, UniProt P06213); test: INSR enzyme HTRF inhibition assay; assay type: biochemical; conditions: 35 μM ATP, read-out: INSR_IC50
# T4 construct: purchased Life technology (Madison, Wis.)
# T4 sequence (P06213 28-1382): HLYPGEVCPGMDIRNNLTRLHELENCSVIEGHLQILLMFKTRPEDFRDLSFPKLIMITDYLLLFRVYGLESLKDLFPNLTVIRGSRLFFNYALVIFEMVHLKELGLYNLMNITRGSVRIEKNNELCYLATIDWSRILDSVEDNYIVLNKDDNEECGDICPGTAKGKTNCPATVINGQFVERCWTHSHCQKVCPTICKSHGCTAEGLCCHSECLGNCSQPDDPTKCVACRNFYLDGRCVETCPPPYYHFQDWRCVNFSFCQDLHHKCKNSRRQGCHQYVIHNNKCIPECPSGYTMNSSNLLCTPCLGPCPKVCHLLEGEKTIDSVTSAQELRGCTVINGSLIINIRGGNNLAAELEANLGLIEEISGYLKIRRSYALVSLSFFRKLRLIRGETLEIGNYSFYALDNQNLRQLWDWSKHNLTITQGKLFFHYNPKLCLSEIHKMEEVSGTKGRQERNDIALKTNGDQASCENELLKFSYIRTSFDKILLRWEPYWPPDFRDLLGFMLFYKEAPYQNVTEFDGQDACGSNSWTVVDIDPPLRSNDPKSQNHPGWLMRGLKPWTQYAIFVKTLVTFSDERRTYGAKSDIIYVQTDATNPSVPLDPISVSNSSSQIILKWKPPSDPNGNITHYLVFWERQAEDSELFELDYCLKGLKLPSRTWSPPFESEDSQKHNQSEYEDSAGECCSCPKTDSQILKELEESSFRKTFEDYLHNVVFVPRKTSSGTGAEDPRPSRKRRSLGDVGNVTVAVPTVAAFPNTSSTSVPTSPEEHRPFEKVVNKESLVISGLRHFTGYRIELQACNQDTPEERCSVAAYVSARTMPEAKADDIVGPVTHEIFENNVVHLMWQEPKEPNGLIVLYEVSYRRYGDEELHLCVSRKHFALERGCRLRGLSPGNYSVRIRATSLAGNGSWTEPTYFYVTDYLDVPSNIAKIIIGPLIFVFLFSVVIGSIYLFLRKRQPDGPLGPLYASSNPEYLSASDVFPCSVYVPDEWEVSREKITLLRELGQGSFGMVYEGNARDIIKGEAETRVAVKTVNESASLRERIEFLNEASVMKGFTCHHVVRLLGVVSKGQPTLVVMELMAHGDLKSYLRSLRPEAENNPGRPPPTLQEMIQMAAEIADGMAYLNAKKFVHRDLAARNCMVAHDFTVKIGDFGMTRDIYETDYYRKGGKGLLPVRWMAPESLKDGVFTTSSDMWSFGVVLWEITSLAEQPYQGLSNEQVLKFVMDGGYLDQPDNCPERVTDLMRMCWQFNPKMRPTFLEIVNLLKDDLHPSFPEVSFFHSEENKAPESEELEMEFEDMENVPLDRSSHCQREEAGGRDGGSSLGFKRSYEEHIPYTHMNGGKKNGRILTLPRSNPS
# Procedure: Enzyme: EGFR wild type, EGFR T790M/L858R, EGFR T790M and INSR were purchased from Life technology (Madison, Wis.), EGFR d746-750/T790M was purchased from Carna Biosciences (Japan).
# HTRF Kit was purchased from Cis-Bio International which contained the Eu-labeled TK1 antibody, XL665 and biotin-labeled TK1 polypeptide substrates.
# Detecting instrument: Envision (PerkinElmer).
# The test compound was diluted 3-fold to obtain 10 doses of which the final concentration was from 300 nM to 0.015 nM.
# INSR Enzyme Reaction Mixture System:
# 0.5 nM INSR, 1 μM biotin-TK1 peptide, 35 μM ATP enzyme buffer, a total of which was 10 μL. The reaction plate was white Proxiplate 384-Plus plate (PerkinElmer) and the mixture was reacted at 23° C. for 60 minutes.
# Reaction Detection: 10 μL of detection reagent containing Antibody 2 nM and XL665 62.5 nM was added, and the reagent was incubated at 23° C. for 60 minutes. The plates were read by Envision.
# The reading is converted to the suppression rate (%) by the following formula […]/(Max-Min)*100%. IC50 Data was measured by four-parameter curve fitting (Model 205 in XLFITS, IDBS).
# [7] = test system: NCI-H1975 lung cancer patient-derived xenograft (CDX); test: Pharmacodynamics study in vivo, NCI-H1975 xenograft (CDX) model; design: species or system BALB/c nude mice; conditions: AZD9291 5 mg/kg
# Procedure: For example, after 21 days of administration, the tumor volume of the representative compounds 30, 33, 34, 40, 42 and 43 decreased from the beginning of about 149 mm^3 to 3-39 mm^3.
# The pharmacological experiments in vivo were performed on BALB/c nude mice that subcutaneously implanted NCI-H1975 lung cancer […] xenograft (CDX).
# BALB/c nude mice, female, 6-8 weeks, weighted about 18-22 grams, the mice were kept in a special pathogen-free environment, and in a single ventilation cage (5 mice per cage). The bedding and water of all the cages were disinfected before use. All animals were free to obtain standard certified commercial laboratory diets. A total of 100 mice were purchased from Beijing Vital for research. The tumor tissue (20-30 mm^3) was implanted subcutaneously in the […] of each mouse for tumor growth. The experiment was started when the average tumor volume reached about 150-200 mm^3. The test compound was orally administered daily (compound 30 was administered at 10 mg/kg, compound 33, 34, 40, 42 and 43 were administered at 20 mg/kg and compound AZD9291 was administered continuously for 21 days at 5 mg/kg, the data were shown in Table 3). The tumor volume was measured twice a week with a two-dimensional caliper and the volume was measured in cubic millimeters and calculated by the following formula: V=V=0.5 a×b2, where a and b were the major and minor diameters of the tumor, respectively.
# T1 sequence (P00533 25-1210): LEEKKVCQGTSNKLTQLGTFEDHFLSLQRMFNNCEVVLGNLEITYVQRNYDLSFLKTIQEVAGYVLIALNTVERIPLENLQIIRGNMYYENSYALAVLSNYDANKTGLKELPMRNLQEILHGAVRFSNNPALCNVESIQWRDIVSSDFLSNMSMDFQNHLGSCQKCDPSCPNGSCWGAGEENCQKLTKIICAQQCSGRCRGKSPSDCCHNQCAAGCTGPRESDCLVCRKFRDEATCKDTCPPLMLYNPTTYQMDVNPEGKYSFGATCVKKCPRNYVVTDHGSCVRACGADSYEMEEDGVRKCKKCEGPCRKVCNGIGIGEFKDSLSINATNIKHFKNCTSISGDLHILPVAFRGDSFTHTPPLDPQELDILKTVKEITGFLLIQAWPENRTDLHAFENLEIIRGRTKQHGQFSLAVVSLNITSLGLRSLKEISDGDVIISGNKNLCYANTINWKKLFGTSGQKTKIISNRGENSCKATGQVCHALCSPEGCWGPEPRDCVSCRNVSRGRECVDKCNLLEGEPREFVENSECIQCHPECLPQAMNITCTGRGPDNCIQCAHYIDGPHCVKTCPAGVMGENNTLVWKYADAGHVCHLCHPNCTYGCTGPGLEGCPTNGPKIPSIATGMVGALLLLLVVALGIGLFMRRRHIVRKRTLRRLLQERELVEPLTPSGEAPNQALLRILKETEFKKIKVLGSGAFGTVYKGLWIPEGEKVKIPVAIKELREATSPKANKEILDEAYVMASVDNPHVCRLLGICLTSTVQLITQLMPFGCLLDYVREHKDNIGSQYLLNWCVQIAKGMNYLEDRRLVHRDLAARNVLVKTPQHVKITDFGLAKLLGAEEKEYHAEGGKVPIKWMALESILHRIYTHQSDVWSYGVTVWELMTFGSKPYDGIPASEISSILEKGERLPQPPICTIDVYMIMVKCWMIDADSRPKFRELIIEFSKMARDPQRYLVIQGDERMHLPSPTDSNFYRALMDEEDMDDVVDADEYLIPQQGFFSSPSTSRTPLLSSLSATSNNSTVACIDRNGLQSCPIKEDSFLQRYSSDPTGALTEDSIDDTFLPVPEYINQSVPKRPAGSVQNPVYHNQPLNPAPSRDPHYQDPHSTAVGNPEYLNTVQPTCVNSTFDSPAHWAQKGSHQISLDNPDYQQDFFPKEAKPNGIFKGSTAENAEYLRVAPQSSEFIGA
Structure (SMILES),pIC50 [1],pIC50 [2],pIC50 [3],pIC50 [4],pIC50 [5],A431:NCI-H1975 (ratio) [5],pIC50 [6],"Tumor Volume (mm^3) 4 days ([7]; day 4, oral daily: compound 30 10 mg/kg, 33, 34, 40, 42, 43 20 mg/kg)","Tumor Volume (mm^3) 7 days ([7]; day 7, oral daily: compound 30 10 mg/kg, 33, 34, 40, 42, 43 20 mg/kg)","Tumor Volume (mm^3) 11 days ([7]; day 11, oral daily: compound 30 10 mg/kg, 33, 34, 40, 42, 43 20 mg/kg)","Tumor Volume (mm^3) 14 days ([7]; day 14, oral daily: compound 30 10 mg/kg, 33, 34, 40, 42, 43 20 mg/kg)","Tumor Volume (mm^3) 18 days ([7]; day 18, oral daily: compound 30 10 mg/kg, 33, 34, 40, 42, 43 20 mg/kg)"
"C=CC(=O)Nc1cc(Nc2nccc(-c3c4n(c5ccccc35)CCC4)n2)c(OC)cc1OCCN(C)C [Embodiment 3, N-(5-((4-(2,3-Dihydro-1H-pyrrolo[1,2-a]indol-9-yl)pyrimidin-2-yl)amino)-2-(2-(dimethylamino)ethoxy)-4-methoxyphenyl)acrylamide]",8.80,9.68,9.72,7.17,6.07,12.7,6.05,–,–,–,–,–
"C=CC(=O)Nc1cc(Nc2nccc(-c3c4n(c5ccccc35)CCOC4)n2)c(OC)cc1N(C)CCN(C)C [Embodiment 17, N-(5-((4-(3,4-Dihydro-1H-[1,4]oxazino[4,3-a]indol-10-yl)pyrimidin-2-yl)amino)-2-((2-(dimethylamino)ethyl)(methyl)amino)-4-methoxyphenyl)acrylamide]",9.05,9.68,9.74,8.39,6.11,189.5,6.47,–,–,–,–,–
"C=CC(=O)Nc1cc(Nc2nccc(-c3c4n(c5ccccc35)CCOC4)n2)c(OC)cc1N(C)CCN(C)CC [Embodiment 18, N-(5-((4-(3,4-Dihydro-1H-[1,4]oxazino[4,3-a]indol-10-yl)pyrimidin-2-yl)amino)-2-((2-(ethyl(methyl)amino)ethyl)(methyl)amino)-4-methoxyphenyl)acrylamide]",8.72,9.70,9.74,8.15,6.29,74,6.20,–,–,–,–,–
"C=CC(=O)Nc1cc(Nc2nccc(-c3c4n(c5ccccc35)CCOC4)n2)c(OC)cc1N(C)CC(C)(C)N(C)C [Embodiment 25, N-(5-((4-(3,4-Dihydro-1H-[1,4]oxazino[4,3-a]indol-10-yl)pyrimidin-2-yl)amino)-2-((2-(dimethylamino)-2-methylpropyl)(methyl)amino)-4-methoxyphenyl)acrylamide]",9.09,9.70,9.89,8.40,6.61,62,6.48,–,–,–,–,–
"C=CC(=O)Nc1cc(Nc2nccc(-c3c4n(c5ccccc35)CCOC4)n2)c(OC)cc1N(C)CCNC [Embodiment 27, N-(5-((4-(3,4-Dihydro-1H-[1,4]oxazino[4,3-a]indol-10-yl)pyrimidin-2-yl)amino)-4-methoxy-2-(methyl(2-(methylamino)ethyl)amino)phenyl)acrylamide]",8.77,9.68,9.72,8.30,6.31,97,6.24,–,–,–,–,–
"C=CC(=O)Nc1cc(Nc2ncc(F)c(-c3c4n(c5ccccc35)CCOC4)n2)c(OC)cc1N(C)CCN(C)C [Embodiment 30, N-(5-((4-(3,4-Dihydro-1H-[1,4]oxazino[4,3-a]indol-10-yl)-5-fluoropyrimidin-2-yl)amino)-2-((2-(dimethylamino)ethyl)(methyl)amino)-4-methoxyphenyl)acrylamide]",9.10,9.85,9.80,7.82,6.08,55,6.41,115 mm^3,90 mm^3,48 mm^3,34 mm^3,22 mm^3
"C=CC(=O)Nc1cc(Nc2nccc(-c3c4n(c5ccc(F)cc35)CCOC4)n2)c(OC)cc1N(C)CCN(C)C [Embodiment 37, N-(2-((2-(Dimethylamino)ethyl)(methyl)amino)-5-((4-(8-fluoro-3,4-dihydro-1H-[1,4]oxazino[4,3-a]indol-10-yl)pyrimidin-2-yl)amino)-4-methoxyphenyl)acrylamide]",9.46,10.00,10.00,7.90,6.52,24,6.36,–,–,–,–,–
"C=CC(=O)Nc1cc(Nc2nccc(-c3c4n(c5cc(F)ccc35)CCOC4)n2)c(OC)cc1N(C)CCN(C)C [Embodiment 38, N-(2-((2-(Dimethylamino)ethyl)(methyl)amino)-5-((4-(7-fluoro-3,4-dihydro-1H-[1,4]oxazino[4,3-a]indol-10-yl)pyrimidin-2-yl)amino)-4-methoxyphenyl)acrylamide]",9.22,10.05,10.00,8.15,6.50,45,6.51,–,–,–,–,–
